According to patent US7064139B2, “Method for treating retroviral infections” (Uniroyal Chemical Company, Inc., priority 2001, dated 2006):
Converted amounts (≈) assume the structure as drawn. Read-outs that look alike come from different tables or passages of the source.

Tests used:
[1] = system: HIV-2 (ROD); experiment: Inhibition of HIV-2 syncytium formation in CEM cells; type: cell-based; conditions: for HIV-2 % Protection: protection of CEM cells against virus-induced cytopathicity at the concentration in the previous column; for EC50: Human immunodeficiency virus 2, CCRF-CEM, read-out: EC50 (ug/ml) HIV-2
From the text: (§1) The cell type used to determine activity of the compounds of the invention herein, i.e., the test compounds, against HIV was human T-lymphoblast (CEM) cells obtained from the American Tissue Cell Culture Collection (Rockville, Md.). HIV-1 (IIIB) was originally obtained from the culture of persistently HIV-1 infected H9 cells and was provided by R. C. Gallo and M. Popovic (National Cancer Institute, National Institutes of Health, Bethesda, Md.). HIV-2 (ROD) was originally obtained from L. M. Montagnier (Pasteur Institute, Paris, France).
(§2) To determine the antiviral activity of the test compounds, CEM cells were suspended at a cell density of approximately 300,000 cells per ml of culture medium and infected with approximately 100 CCID50 (100 CCID50 being the 50% cell culture infective dose) of HIV-1 (IIIB) or HIV-2 (ROD)). Then 100 μl of the infected cell suspensions was added to 200 μl micro titer plate wells containing 100 μl of appropriate serial (5-fold) dilutions of the test compounds. The inhibitory effect of the test compounds on HIV-1 or HIV-2 syncytium formation in CEM cells was examined microscopically on day four post infection.
(§3) In these cases, the percent protection of the cells against virus-induced cytopathicity by the test compounds at the indicated compound concentration in the previous column is given.

[2] = system: HIV-1 (IIIB); experiment: microbe, parasite or virus in culture; type: cell-based; conditions: for EC50: Human immunodeficiency virus 1, IIIB, CCRF-CEM, read-out: EC50 (ug/ml) HIV-1; for HIV-1 % Protection: protection of CEM cells against virus-induced cytopathicity at the concentration in the previous column
From the text: as §1, §2, §3

[3] = system: Davis strain CMV; experiment: Reduction of CMV-induced cytopathicity in HEL cells; type: cell-based, human cytomegalovirus (HCMV); conditions: for Antiviral % Inhibition Davis strain CMV: estimate of percent protection at the concentration in the previous column; for EC50: read-out: Antiviral EC50 (ug/ml) Davis strain CMV
Experimental: Confluent HEL cells grown in […] microtiter plates were inoculated with CMV at an input of 100 PFU (plaque forming units) per well. After a one to two hour incubation period, residual virus was removed and the infected cells were further incubated with MEM (Minimal Essential Medium) (supplemented with 2% inactivated Fetal Calf Serum (FCS), […], and 0.3% sodium bicarbonate) containing varying concentrations of the test compounds. Antiviral activity was expressed as EC50 (50% effective concentration), or test compound concentration required to reduce virus-induced cytopathicity after seven days by 50% compared to the untreated control.
In some cases, the compounds had considerable cytotoxicity against HEL cells, which made determination of the EC50 difficult. In these cases, an estimate of the percent protection at the compound concentration indicated in the previous columns is given.

[4] = CEM cells, syncytium formation, day four post infection
[5] = HEL cells, virus-induced cytopathicity after seven days

EC50 (ug/ml) HIV-2 [1, 4] | EC50 (ug/ml) HIV-1 [2, 4] | Antiviral EC50 (ug/ml) Davis strain CMV [3, 5] [µg/mL] | SMILES | HIV-2 % Protection [1] [%] | further results
17.0 µg/mL (≈ 56.4 µM) | 13.00 µg/mL (≈ 43.1 µM) | >50 | [O-][n+]1ccccc1[S+]([O-])Cc1cccc(C(F)(F)F)c1 (stereo not drawn) [Compound 85] |  | Antiviral % Inhibition Davis strain CMV ([3]; HEL cells): 20.0%
3.0 µg/mL (≈ 10.1 µM) | 2.10 µg/mL (≈ 7.1 µM) | 11.5 | Cc1ccc(C)c(C[S+]([O-])c2ccc(Cl)c[n+]2[O-])c1 (stereo not drawn) [Compound 153] |  | 
9.0 µg/mL (≈ 34.2 µM) | 2.40 µg/mL (≈ 9.11 µM) | 16.0 | Cc1cccc(CS(=O)(=O)c2cccc[n+]2[O-])c1 [Compound 27] |  | 
41.0 µg/mL (≈ 140 µM) | 20.00 µg/mL (≈ 68.4 µM) | >50 | Cc1ccc(N)cc1C(C)S(=O)(=O)c1cccc[n+]1[O-] (stereo not drawn) [Compound 1] |  | Antiviral % Inhibition Davis strain CMV ([3]; HEL cells): 0.0%
>20.0 µg/mL | 15.00 µg/mL (≈ 57 µM) | >20 | Cc1ccc[n+]([O-])c1S(=O)(=O)Cc1ccccc1 [Compound 80] | 0.0 | Antiviral % Inhibition Davis strain CMV ([3]; HEL cells): 0.0%
>0.8 µg/mL | >.8 µg/mL | 10.0 | COc1ccc(C[S+]([O-])c2cccc[n+]2[O-])cc1OC (stereo not drawn) [Compound 98] | 0.0 | HIV-1 % Protection [2]: 0.0%
>20 µg/mL | 1.0 µg/mL (≈ 3.86 µM) |  | Cc1ccc(C)c(CSc2c(C)ccc[n+]2[O-])c1 [Compound 164] | 0.0 | 

Continued, compound first:

SMILES | EC50 (ug/ml) HIV-2 [1, 4] | EC50 (ug/ml) HIV-1 [2, 4] | Antiviral EC50 (ug/ml) Davis strain CMV [3, 5] [µg/mL] | HIV-2 % Protection [1] [%] | further results
Cc1cc(CS(=O)(=O)c2cccc[n+]2[O-])c(C)cc1CS(=O)(=O)c1cccc[n+]1[O-] [Compound 25] | ≧20 ug/ml | 10.00 µg/mL (≈ 22.3 µM) | 16.0 | 37.5 | 
Cc1ccc(CS(=O)(=O)c2c(C)ccc[n+]2[O-])c(C)c1 [Compound 83] | ≧20 ug/ml | 6.00 µg/mL (≈ 20.6 µM) | 12.0 | 37.5 | 
O=S(=O)(Cc1c(Cl)cccc1Cl)c1cccc[n+]1[O-] [Compound 17, 2-(2,6-Dichlorophenylmethylsulfonyl)pyridine N-oxide] |  |  |  |  | EC50 [1, 4]: 8 µg/mL (≈ 25.1 µM); EC50 [2, 4]: 9 µg/mL (≈ 28.3 µM); EC50 ([3]; Human betaherpesvirus 5, 168 h, HEL cells, virus-induced cytopathicity after seven days): 5 µg/mL (≈ 15.7 µM)
Cc1ccc2ccccc2c1CS(=O)(=O)c1cccc[n+]1[O-] [Compound 43] | ≧4 ug/ml | ≧4 ug/ml | >50 | 37.5 | HIV-1 % Protection [2]: 37.5%; Antiviral % Inhibition Davis strain CMV ([3]; HEL cells): 20.0%
Cc1ccc(C)c(C(Cl)S(=O)(=O)c2c(Cl)ccc[n+]2[O-])c1 (stereo not drawn) [Compound 125] | >4.0 µg/mL | >4 µg/mL | 31.5 | 0.0 | HIV-1 % Protection [2]: 0.0%
Cc1ccc(C)c(CSc2ccccn2)c1 [Compound 148, 2-((2,5-dimethylphenyl)methylthio)pyridine] |  |  |  |  | EC50 [1]: > 20 µg/mL; EC50 [2]: > 20 µg/mL; EC50 ([3]; Human betaherpesvirus 5, HEL, 168 h): 0.4 µg/mL (≈ 1.74 µM)
Nc1nc2c(ncn2COC(CO)CO)c(=O)[nH]1 [DHPG, reference compound] |  |  | 1 |  | 
O=S(=O)(Cc1ccc2c(c1)OCO2)c1cccc[n+]1[O-] [Compound 39] |  | 9.00 µg/mL (≈ 30.7 µM) | >20 |  | Antiviral % Inhibition Davis strain CMV ([3]; HEL cells): 30.0%
Cc1ccccc1C[S+]([O-])c1cccc[n+]1[O-] (stereo not drawn) [Compound 90] |  | ≧20 ug/ml | 37.0 |  | HIV-1 % Protection [2]: 37.5%
Nc1ccn(C[C@@H](CO)OCP(=O)(O)O)c(=O)n1 [S-HPMPC, reference compound] |  |  | 0.3 |  | 
